{"source": "ChEMBL document CHEMBL1130571", "about": "“Synthesis and evaluation of novel-N-[2-(bis-aryl-methoxy)ethyl-N-aralkyl-,-alkanediamines as potent and selective dopamine reuptake inhibitors: Seco analogs of GBR12935 and GBR12909” (Bioorg Med Chem Lett, 1997)", "key": {"[1]": {"target": "Sodium-dependent dopamine transporter (Rattus norvegicus, UniProt P23977)", "sequence (P23977 whole entry)": "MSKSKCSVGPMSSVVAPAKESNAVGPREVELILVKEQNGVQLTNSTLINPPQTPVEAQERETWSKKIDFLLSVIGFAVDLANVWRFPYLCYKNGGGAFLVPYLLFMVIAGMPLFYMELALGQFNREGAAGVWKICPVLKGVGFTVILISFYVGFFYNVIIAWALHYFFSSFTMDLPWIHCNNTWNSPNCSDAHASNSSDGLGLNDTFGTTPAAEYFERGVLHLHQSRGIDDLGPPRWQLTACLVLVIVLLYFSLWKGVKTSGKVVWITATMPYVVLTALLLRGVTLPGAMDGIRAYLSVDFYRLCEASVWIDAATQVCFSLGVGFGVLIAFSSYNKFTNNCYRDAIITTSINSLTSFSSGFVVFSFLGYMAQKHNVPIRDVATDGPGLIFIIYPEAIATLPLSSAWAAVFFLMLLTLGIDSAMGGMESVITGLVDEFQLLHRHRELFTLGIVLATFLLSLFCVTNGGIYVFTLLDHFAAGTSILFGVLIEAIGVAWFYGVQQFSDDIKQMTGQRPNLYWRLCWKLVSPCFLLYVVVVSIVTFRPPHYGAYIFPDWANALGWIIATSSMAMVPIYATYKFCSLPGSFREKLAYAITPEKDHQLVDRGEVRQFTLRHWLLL", "assay": "Compound was tested for its ability to inhibit the neurotransmitter dopamine-DA reuptake system using [3H]dopamine as radioligand"}, "[2]": {"target": "Norepinephrine transporter (Rattus norvegicus, UniProt Q9WTR4)", "sequence (Q9WTR4 whole entry)": "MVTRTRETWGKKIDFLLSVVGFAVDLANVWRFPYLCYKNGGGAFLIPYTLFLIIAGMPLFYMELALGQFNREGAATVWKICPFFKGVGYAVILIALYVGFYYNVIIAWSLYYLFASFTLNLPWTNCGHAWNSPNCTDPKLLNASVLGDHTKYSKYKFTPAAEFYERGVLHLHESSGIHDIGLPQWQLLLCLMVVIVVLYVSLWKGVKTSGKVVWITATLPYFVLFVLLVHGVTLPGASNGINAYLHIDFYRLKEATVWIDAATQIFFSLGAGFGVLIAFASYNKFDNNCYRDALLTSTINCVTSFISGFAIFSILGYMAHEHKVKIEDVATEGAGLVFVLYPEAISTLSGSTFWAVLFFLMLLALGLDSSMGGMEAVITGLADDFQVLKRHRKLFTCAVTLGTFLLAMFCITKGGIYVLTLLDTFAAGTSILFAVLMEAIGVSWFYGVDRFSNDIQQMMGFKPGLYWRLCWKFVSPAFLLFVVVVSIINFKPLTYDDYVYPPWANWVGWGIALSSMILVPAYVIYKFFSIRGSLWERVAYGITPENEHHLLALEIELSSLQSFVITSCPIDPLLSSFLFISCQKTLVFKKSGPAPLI", "assay": "Norepinephrine transporter activity was determined by the ability of compound to inhibit the neurotransmitter norepinephrine-NE reuptake system using [3H]norepinephrine as radioligand"}, "[3]": {"target": "Sodium-dependent serotonin transporter (Rattus norvegicus, UniProt P31652)", "sequence (P31652 whole entry)": "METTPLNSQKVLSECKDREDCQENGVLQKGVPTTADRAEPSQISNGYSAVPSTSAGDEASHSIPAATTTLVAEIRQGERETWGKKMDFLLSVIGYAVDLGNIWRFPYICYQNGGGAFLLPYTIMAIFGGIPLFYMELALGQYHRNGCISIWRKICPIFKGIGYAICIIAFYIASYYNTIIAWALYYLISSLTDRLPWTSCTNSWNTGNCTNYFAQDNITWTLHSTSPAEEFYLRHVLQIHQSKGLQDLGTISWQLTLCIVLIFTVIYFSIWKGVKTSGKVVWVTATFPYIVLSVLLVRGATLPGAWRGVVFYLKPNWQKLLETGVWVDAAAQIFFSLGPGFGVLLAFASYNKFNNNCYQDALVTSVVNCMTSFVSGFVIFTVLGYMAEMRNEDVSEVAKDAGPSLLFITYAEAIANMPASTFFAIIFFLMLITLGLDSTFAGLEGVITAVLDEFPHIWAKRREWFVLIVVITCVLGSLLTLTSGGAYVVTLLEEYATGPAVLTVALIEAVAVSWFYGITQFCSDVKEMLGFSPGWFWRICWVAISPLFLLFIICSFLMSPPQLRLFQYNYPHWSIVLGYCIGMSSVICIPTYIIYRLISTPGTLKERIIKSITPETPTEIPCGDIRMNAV", "assay": "Compound was tested for its ability to inhibit the neurotransmitter serotonin-5-HT reuptake system using [3H]5-HT as radioligand"}, "[4]": {"assay": "Selectivity of compound towards DA transporter to that of NE transporter"}}, "note": "Where a name gives a salt, the structure may show the parent alone."}
{"smiles": "I/C=C/CN1CCN(CCOC(c2ccccc2)c2ccccc2)CC1", "values": [{"measurement": "IC50", "setting": "[1]", "value": 0.505, "unit": "µM"}, {"measurement": "IC50", "setting": "[2]", "value": "> 10", "unit": "µM"}, {"measurement": "IC50", "setting": "[3]", "value": "> 10", "unit": "µM"}, {"measurement": "Selectivity", "setting": "[4]", "value": "> 20"}]}
{"smiles": "c1ccc(CCCNCCCNCCOC(c2ccccc2)c2ccccc2)cc1", "values": [{"measurement": "IC50", "setting": "[1]", "value": 0.15, "unit": "µM"}, {"measurement": "IC50", "setting": "[2]", "value": "> 10", "unit": "µM"}, {"measurement": "IC50", "setting": "[3]", "value": "> 10", "unit": "µM"}, {"measurement": "Selectivity", "setting": "[4]", "value": "> 65"}]}
{"smiles": "CN(CCCc1ccccc1)CCN(C)CCOC(c1ccc(F)cc1)c1ccc(F)cc1", "values": [{"measurement": "IC50", "setting": "[1]", "value": 0.01, "unit": "µM"}, {"measurement": "IC50", "setting": "[2]", "value": "> 10", "unit": "µM"}, {"measurement": "IC50", "setting": "[3]", "value": 1.5, "unit": "µM"}, {"measurement": "Selectivity", "setting": "[4]", "value": "> 1000"}]}
{"smiles": "c1ccc(CCCNCCNCCOC(c2ccccc2)c2ccccc2)cc1", "values": [{"measurement": "IC50", "setting": "[1]", "value": 1.23, "unit": "µM"}, {"measurement": "IC50", "setting": "[2]", "value": "> 10", "unit": "µM"}, {"measurement": "IC50", "setting": "[3]", "value": "> 10", "unit": "µM"}, {"measurement": "Selectivity", "setting": "[4]", "value": "> 8"}]}
{"smiles": "I/C=C\\CN1CCN(CCOC(c2ccccc2)c2ccccc2)CC1", "values": [{"measurement": "IC50", "setting": "[1]", "value": 0.78, "unit": "µM"}, {"measurement": "IC50", "setting": "[2]", "value": 2.19, "unit": "µM"}, {"measurement": "IC50", "setting": "[3]", "value": "> 10", "unit": "µM"}, {"measurement": "Selectivity", "setting": "[4]", "value": 3}]}
{"smiles": "CC(NC(C)(C)C)C(=O)c1cccc(Cl)c1", "note": "(stereo not given) [BUPROPION HYDROCHLORIDE]", "values": [{"measurement": "IC50", "setting": "[1]", "value": 1.23, "unit": "µM"}]}
{"smiles": "Fc1ccc(C(OCCNCCNCCCc2ccccc2)c2ccc(F)cc2)cc1", "values": [{"measurement": "IC50", "setting": "[1]", "value": 0.049, "unit": "µM"}, {"measurement": "IC50", "setting": "[2]", "value": "> 10", "unit": "µM"}, {"measurement": "IC50", "setting": "[3]", "value": 0.5, "unit": "µM"}, {"measurement": "Selectivity", "setting": "[4]", "value": "> 200"}]}
